The target of test [1] is T1, GST-tagged Tnks-1 (1023-1327 aa) (Homo sapiens, UniProt O95271).
T1 construct: GST-tagged Tnks-1 (1023-1327 aa, prepared in-house); made in house
Nature of the test: TNKS1 activity ELISA (autoparsylation assay). The class given is biochemical. The note with it: read-out: IC50 TNKS1 ELISA. The procedure:
(§1) Description of the TNKS1 and TNKS2 ELISA Assay
(§2) Then the activity assay with biotinylated NAD is performed in the absence/presence of the compounds. During the enzymatic reaction GST tagged TNKS transfers biotinylated ADP-ribose to itself from biotinylated NAD as co-substrate. For the detection streptavidin-HRP conjugate is added that binds to the biotinylated TNKS and is thereby captured to the plates. The amount of biotinylated resp. autoparsylated TNKS is detected with a luminescence substrate for HRP. The level of the luminescence signal correlates directly with the amount of autoparsylated TNKS and therefore with activity of TNKS.
(§3) The activity ELISA is performed in 384 well Glutathione coated microtiter plates (Express capture Glutathione coated plate, Biocat, Heidelberg, Germany). The plates are pre-equilibrated with PBS. […] The plates are washed 3 times with PBS-Tween-20. The wells are blocked by incubation at room temperature for 20 minutes with 50 μl blocking buffer (PBS, 0.05% Tween-20, 0.5% BSA). Afterwards the plates are washed 3 times with PBS-Tween-20. […] The reaction is stopped by 3 times washing with PBS-Tween-20. For the detection 50 μl of 20 ng/μl Streptavidin, HRP conjugate (MoBiTec, Gottingen, Germany) in PBS/0.05% Tween-20/0.01% BSA are added and the plates are incubated for 30 minutes at room temperature. After three times washing with PBS-Tween-20 50 μl of SuperSignal ELISA Femto Maximum sensitivity substrate solution (ThermoFisherScientific (Pierce), Bonn, Germany) are added. Following a 1 minute incubation at room temperature luminescence signals are measured with an Envision multimode reader (Perkin Elmer LAS Germany GmbH) at 700 nm. The full value used is the inhibitor-free reaction. […] The inhibitory values (IC50) are determined using either the program Symyx Assay Explorer® or Condosseo® from GeneData.
A general note: In an ELISA, binding on a coated surface is turned into a signal by an enzyme label.

Test [2] addresses GST-tagged Tnks-2 (873-1166 aa) (Homo sapiens, UniProt Q9H2K2). Nature of the test: biochemical. The procedure: as §1, §2, §3

GST-tagged Tnks-2 (873-1166 aa), sequence (Q9H2K2 873-1166): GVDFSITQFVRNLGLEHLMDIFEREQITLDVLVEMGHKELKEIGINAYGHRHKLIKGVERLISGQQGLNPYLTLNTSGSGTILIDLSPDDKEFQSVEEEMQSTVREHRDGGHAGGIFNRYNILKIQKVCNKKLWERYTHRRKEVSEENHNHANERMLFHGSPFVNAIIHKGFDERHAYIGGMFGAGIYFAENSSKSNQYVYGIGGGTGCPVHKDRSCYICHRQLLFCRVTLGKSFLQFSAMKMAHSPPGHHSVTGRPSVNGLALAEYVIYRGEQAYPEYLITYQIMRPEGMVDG
T1 sequence (O95271 1023-1327): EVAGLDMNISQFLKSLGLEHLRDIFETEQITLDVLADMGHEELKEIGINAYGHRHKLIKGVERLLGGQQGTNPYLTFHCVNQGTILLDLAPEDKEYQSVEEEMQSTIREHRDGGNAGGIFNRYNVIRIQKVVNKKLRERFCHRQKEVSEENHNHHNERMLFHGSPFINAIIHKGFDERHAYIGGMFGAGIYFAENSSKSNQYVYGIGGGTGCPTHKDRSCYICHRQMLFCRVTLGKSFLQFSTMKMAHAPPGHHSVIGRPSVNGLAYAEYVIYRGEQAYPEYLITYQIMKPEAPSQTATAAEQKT

The term IC50 denotes the concentration at which inhibition is half-maximal. Take `CCC(O)(CC)c1ccc(-c2nc3ccc(F)cc3c(=O)[nH]2)cc1` [Compound A14, 2-[4-(1-ethyl-1-hydroxy-propyl)phenyl]-6-fluoro-3H-quinazolin-4-one]: the IC50 in test [1] and in test [2] was under 300 nM throughout.
Turning to `O=c1[nH]c(-c2ccc(C3(O)CCCC3)cc2)nc2ccc(F)cc12` [Compound A16, 6-fluoro-2-[4-(1-hydroxycyclopentyl)phenyl]-3H-quinazolin-4-one], the IC50 in test [1] and in test [2] was under 300 nM in each case.
As for `CC(C)(O)c1ccc(-c2nc3c(F)cc(F)c(F)c3c(=O)[nH]2)cc1` [Compound A26, 5,6,8-trifluoro-2-[4-(1-hydroxy-1-methyl-ethyl)-phenyl]-3H-quinazolin-4-one], the IC50 in test [1] and in test [2] was under 300 nM throughout.
For `Cc1cc(F)cc2c(=O)[nH]c(-c3ccc(N4CCC(O)CC4)cc3)nc12` [Compound A29, 6-fluoro-2-[4-(4-hydroxy-piperidin-1-yl)-phenyl]-8-methyl-3H-quinazolin-4-one], the IC50 in test [1] and in test [2] was under 300 nM throughout.
Take `Cc1cc(F)cc2c(=O)[nH]c(-c3ccc(N4CCC(CO)CC4)cc3)nc12` [Compound A31, 6-fluoro-2-[4-(4-hydroxymethyl-piperidin-1-yl)-phenyl]-8-methyl-3H-quinazolin-4-one]: the IC50 in test [1] and in test [2] was under 300 nM in each case.
